{
  "source": "patent US9260425B2",
  "about": "(Genetech, Inc., priority 2011, dated 2016)",
  "data": [
    {"biological_target": "Pim-1 (Homo sapiens (Human), UniProt P11309)", "sequence (P11309 whole entry)": "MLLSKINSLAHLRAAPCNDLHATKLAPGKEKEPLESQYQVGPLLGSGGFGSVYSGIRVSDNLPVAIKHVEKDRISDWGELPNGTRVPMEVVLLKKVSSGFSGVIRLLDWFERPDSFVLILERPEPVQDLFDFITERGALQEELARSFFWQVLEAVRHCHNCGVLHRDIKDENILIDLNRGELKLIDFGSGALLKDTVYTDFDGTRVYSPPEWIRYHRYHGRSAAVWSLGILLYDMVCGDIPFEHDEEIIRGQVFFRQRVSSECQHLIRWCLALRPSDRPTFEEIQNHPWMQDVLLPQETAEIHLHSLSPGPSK", "test": "Pim kinase binding activity assay (Example 901), PIM-1 enzyme, Caliper microfluidic peptide phosphorylation", "type": "biochemical", "conditions": "20 pM PIM-1, 10 μM ATP, 1 μM FAM-peptide, 90 minutes at room temperature", "summary_of_the_method": "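PIM-1 at 20 pM phosphorylated 1 μM FAM-labelled Pim peptide with 10 μM ATP in HEPES pH 7.2, MgCl2, Tween 20 and DTT for 90 min at room temperature. EDTA stopped the reaction, and product and substrate were resolved by microfluidic electrophoresis (ex 488/em 530 nm). Ki was derived from substrate conversion.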", "units": {"Ki": "nM"}, "values": [
      {"smiles": "Fc1ccccc1-c1n[nH]c2cnc(-c3cnccn3)cc12", "note": "[Example 219, 3-(2-fluorophenyl)-5-(pyrazin-2-yl)-1H-pyrazolo[3,4-c]pyridine]", "Ki": 33.5},
      {"smiles": "Cc1ccc(-c2n[nH]c3cnc(-c4cnn(C)c4)cc23)nc1N1CCC[C@H](O)C1", "note": "[Example 441, (S)-1-(3-methyl-6-(5-(1-methyl-1H-pyrazol-4-yl)-1H-pyrazolo[3,4-c]pyridin-3-yl)pyridin-2-yl)piperidin-3-ol]", "Ki": 0.062},
      {"smiles": "c1ccc(-c2n[nH]c3cnc(-c4cnccn4)cc23)cc1", "note": "[Example 214, 3-phenyl-5-(pyrazin-2-yl)-1H-pyrazolo[3,4-c]pyridine]", "Ki": 41.6},
      {"smiles": "O=C(NC1CCNCC1)c1cccc(-c2n[nH]c3cnc(-c4cccnc4)cc23)n1", "note": "[Example 337, N-(piperidin-4-yl)-6-(5-(pyridin-3-yl)-1H-pyrazolo[3,4-c]pyridin-3-yl)picolinamide]", "Ki": 30.5},
      {"smiles": "CN1CCN(c2cc3c(-c4ccccc4)n[nH]c3cn2)CC1=O", "note": "[Example 330, 1-methyl-4-(3-phenyl-1H-pyrazolo[3,4-c]pyridin-5-yl)piperazin-2-one]", "Ki": 660},
      {"smiles": "O=c1cccc(-c2n[nH]c3cnc(-c4cccnc4)cc23)[nH]1", "note": "[Example 132, 6-(5-(pyridin-3-yl)-1H-pyrazolo[3,4-c]pyridin-3-yl)pyridin-2(1H)-one]", "Ki": 130},
      {"smiles": "CC(C)c1ccc(-c2n[nH]c3cnc(-c4cccnc4)cc23)nc1N1CCC[C@H](N)C1", "note": "[Example 328, (S)-1-(3-isopropyl-6-(5-(pyridin-3-yl)-1H-pyrazolo[3,4-c]pyridin-3-yl)pyridin-2-yl)piperidin-3-amine]", "Ki": 0.046},
      {"smiles": "NC(=O)c1cccc(-c2n[nH]c3cnc(-c4cccnc4)cc23)c1", "note": "[Example 125, 3-(5-(pyridin-3-yl)-1H-pyrazolo[3,4-c]pyridin-3-yl)benzamide]", "Ki": 307},
      {"smiles": "Cc1ccc(-c2n[nH]c3cnc(-c4cnn(C)c4)cc23)nc1N1CCN(C)CC1", "note": "[Example 440, 5-(1-methyl-1H-pyrazol-4-yl)-3-(5-methyl-6-(4-methylpiperazin-1-yl)pyridin-2-yl)-1H-pyrazolo[3,4-c]pyridine]", "Ki": 0.029},
      {"smiles": "Cc1ccc(-c2n[nH]c3cnc(-c4cnn(C)c4)cc23)nc1N1CCOCC1", "note": "[Example 419, 4-(3-methyl-6-(5-(1-methyl-1H-pyrazol-4-yl)-1H-pyrazolo[3,4-c]pyridin-3-yl)pyridin-2-yl)morpholine]", "Ki": 0.16},
      {"smiles": "O=C1OCCN1c1cc2c(-c3cccc(N4CCNCC4)n3)n[nH]c2cn1", "note": "[Example 415, 3-(3-(6-(piperazin-1-yl)pyridin-2-yl)-1H-pyrazolo[3,4-c]pyridin-5-yl)oxazolidin-2-one]", "Ki": 104},
      {"smiles": "CCn1cc(-c2cc3c(-c4cccc(N5CCCCC(N)C5)n4)n[nH]c3cn2)cn1", "note": "(stereo not drawn) [Example 518, 1-(6-(5-(1-ethyl-1H-pyrazol-4-yl)-1H-pyrazolo[3,4-c]pyridin-3-yl)pyridin-2-yl)azepan-3-amine]", "Ki": 0.082},
      {"smiles": "NCCNc1cc(-c2n[nH]c3cnc(-c4cccnc4)cc23)ccn1", "note": "[Example 159, N1-(4-(5-(pyridin-3-yl)-1H-pyrazolo[3,4-c]pyridin-3-yl)pyridin-2-yl)ethane-1,2-diamine]", "Ki": 0.941},
      {"smiles": "O=C(NC1CNC1)c1cccc(-c2n[nH]c3cnc(-c4cccnc4)cc23)n1", "note": "[Example 329, N-(azetidin-3-yl)-6-(5-(pyridin-3-yl)-1H-pyrazolo[3,4-c]pyridin-3-yl)picolinamide]", "Ki": 16.5},
      {"smiles": "Fc1ccccc1-c1n[nH]c2cnc(-c3cnccc3OCCC3CCNCC3)cc12", "note": "[Example 220, 3-(2-fluorophenyl)-5-(4-(2-(piperidin-4-yl)ethoxy)pyridin-3-yl)-1H-pyrazolo[3,4-c]pyridine]", "Ki": 0.379},
      {"smiles": "CCn1cc(-c2cc3c(-c4cccc(N5CCCC[C@@H](O)C5)n4)n[nH]c3cn2)cn1", "note": "[Example 502, (R)-1-(6-(5-(1-ethyl-1H-pyrazol-4-yl)-1H-pyrazolo[3,4-c]pyridin-3-yl)pyridin-2-yl)azepan-3-ol]", "Ki": 0.139},
      {"smiles": "C[C@@H]1CN(c2cccc(-c3n[nH]c4cnc(-c5cnn(CCF)c5)cc34)n2)CCN1", "note": "[Example 521, (R)-5-(1-(2-fluoroethyl)-1H-pyrazol-4-yl)-3-(6-(3-methylpiperazin-1-yl)pyridin-2-yl)-1H-pyrazolo[3,4-c]pyridine]", "Ki": 0.026},
      {"smiles": "CN1CCN(c2cc3c(-c4ccccn4)n[nH]c3cn2)CC1=O", "note": "[Example 351, 1-methyl-4-(3-(pyridin-2-yl)-1H-pyrazolo[3,4-c]pyridin-5-yl)piperazin-2-one]", "Ki": 4800},
      {"smiles": "FC(F)(F)c1cncc(-c2cc3c(-c4cccc(N5CCNCC5)n4)n[nH]c3cn2)c1", "note": "[Example 467, 3-(6-(piperazin-1-yl)pyridin-2-yl)-5-(5-(trifluoromethyl)pyridin-3-yl)-1H-pyrazolo[3,4-c]pyridine]", "Ki": 0.093},
      {"smiles": "Cn1cc(-c2cc3c(-c4ccc(Br)c(N5CCN(CCS(C)(=O)=O)C(C)(C)C5)n4)n[nH]c3cn2)cn1", "note": "[Example 406, 3-(5-bromo-6-(3,3-dimethyl-4-(2-(methylsulfonyl)ethyl)piperazin-1-yl)pyridin-2-yl)-5-(1-methyl-1H-pyrazol-4-yl)-1H-pyrazolo[3,4-c]pyridine]", "Ki": 0.259},
      {"smiles": "NCCNC(=O)c1cccc(-c2n[nH]c3cnc(-c4cccnc4)cc23)n1", "note": "[Example 326, N-(2-aminoethyl)-6-(5-(pyridin-3-yl)-1H-pyrazolo[3,4-c]pyridin-3-yl)picolinamide]", "Ki": 17.7},
      {"smiles": "c1cncc(-c2cc3c(-c4cnn(C5CCNCC5)c4)n[nH]c3cn2)c1", "note": "[Example 175, 3-(1-(piperidin-4-yl)-1H-pyrazol-4-yl)-5-(pyridin-3-yl)-1H-pyrazolo[3,4-c]pyridine]", "Ki": 0.3},
      {"smiles": "CNc1cccc(-c2n[nH]c3cnc(-c4cccnc4)cc23)n1", "note": "[Example 437, N-methyl-6-(5-(pyridin-3-yl)-1H-pyrazolo[3,4-c]pyridin-3-yl)pyridin-2-amine]", "Ki": 0.409},
      {"smiles": "CCn1cc(-c2cc3c(-c4cc(C(C)C)ccn4)n[nH]c3cn2)cn1", "note": "[Example 507, 5-(1-ethyl-1H-pyrazol-4-yl)-3-(4-isopropylpyridin-2-yl)-1H-pyrazolo[3,4-c]pyridine]", "Ki": 29.8},
      {"smiles": "CCn1cc(-c2cc3c(-c4cccc(N5CCC[C@H](N)C5)n4)n[nH]c3cn2)cn1", "note": "[Example 445, (S)-1-(6-(5-(1-ethyl-1H-pyrazol-4-yl)-1H-pyrazolo[3,4-c]pyridin-3-yl)pyridin-2-yl)piperidin-3-amine]", "Ki": 0.031},
      {"smiles": "CCn1cc(-c2cc3c(-c4cccc(N5CCCNCC5)n4)n[nH]c3cn2)cn1", "note": "[Example 409, 3-(6-(1,4-diazepan-1-yl)pyridin-2-yl)-5-(1-ethyl-1H-pyrazol-4-yl)-1H-pyrazolo[3,4-c]pyridine]", "Ki": 0.02},
      {"smiles": "Cn1cc(-c2cc3c(-c4ccccc4)n[nH]c3cn2)cn1", "note": "[Example 133, 5-(1-methyl-1H-pyrazol-4-yl)-3-phenyl-1H-pyrazolo[3,4-c]pyridine]", "Ki": 5.57},
      {"smiles": "CCn1cc(-c2cc3c(-c4cccc(N5CCNCC(F)C5)n4)n[nH]c3cn2)cn1", "note": "(stereo not drawn) [Example 504, 5-(1-ethyl-1H-pyrazol-4-yl)-3-(6-(6-fluoro-1,4-diazepan-1-yl)pyridin-2-yl)-1H-pyrazolo[3,4-c]pyridine]", "Ki": 0.076},
      {"smiles": "Cc1ccc(F)c(-c2n[nH]c3cnc(-c4cnn(C)c4)cc23)c1", "note": "[Example 205, 3-(2-fluoro-5-methylphenyl)-5-(1-methyl-1H-pyrazol-4-yl)-1H-pyrazolo[3,4-c]pyridine]", "Ki": 6.08},
      {"smiles": "c1ccc(-c2n[nH]c3cnc(-n4cncn4)cc23)cc1", "note": "[Example 142, 3-phenyl-5-(1H-1,2,4-triazol-1-yl)-1H-pyrazolo[3,4-c]pyridine]", "Ki": 306},
      {"smiles": "Cn1cc(-c2cc3c(-c4cccc(N5C[C@H](N)C[C@@H](F)C5)n4)n[nH]c3cn2)cn1", "note": "[Example 517, (3R,5R)-5-fluoro-1-(6-(5-(1-methyl-1H-pyrazol-4-yl)-1H-pyrazolo[3,4-c]pyridin-3-yl)pyridin-2-yl)piperidin-3-amine]", "Ki": 1.17},
      {"smiles": "Cc1n[nH]c2cnc(-c3cnccc3N3CCC[C@H](N)C3)cc12", "note": "[Example 112, (S)-1-(3-(3-methyl-1H-pyrazolo[3,4-c]pyridin-5-yl)pyridin-4-yl)piperidin-3-amine]", "Ki": 3500},
      {"smiles": "NC1CCN(Cc2n[nH]c3cnc(-c4cccnc4)cc23)CC1", "note": "[Example 106, 1-((5-(pyridin-3-yl)-1H-pyrazolo[3,4-c]pyridin-3-yl)methyl)piperidin-4-amine]", "Ki": 1400},
      {"smiles": "CCn1cc(-c2cc3c(-c4cccc(N5CCNC[C@@H](O)C5)n4)n[nH]c3cn2)cn1", "note": "[Example 411, (R)-1-(6-(5-(1-ethyl-1H-pyrazol-4-yl)-1H-pyrazolo[3,4-c]pyridin-3-yl)pyridin-2-yl)-1,4-diazepan-6-ol]", "Ki": 0.014},
      {"smiles": "Fc1ccccc1-c1n[nH]c2cnc(-c3cncc(NC4CCNCC4)c3)cc12", "note": "[Example 171, 5-(3-(2-fluorophenyl)-1H-pyrazolo[3,4-c]pyridin-5-yl)-N-(piperidin-4-yl)pyridin-3-amine]", "Ki": 2.42},
      {"smiles": "CCn1cc(-c2cc3c(-c4nc(N5CCC[C@H](N)C5)ccc4Cl)n[nH]c3cn2)cn1", "note": "[Example 466, (S)-1-(5-chloro-6-(5-(1-ethyl-1H-pyrazol-4-yl)-1H-pyrazolo[3,4-c]pyridin-3-yl)pyridin-2-yl)piperidin-3-amine]", "Ki": 0.389},
      {"smiles": "CCn1cc(-c2cc3c(-c4cc(OC)ccn4)n[nH]c3cn2)cn1", "note": "[Example 476, 5-(1-ethyl-1H-pyrazol-4-yl)-3-(4-methoxypyridin-2-yl)-1H-pyrazolo[3,4-c]pyridine]", "Ki": 15.7},
      {"smiles": "CN1CCN(c2nc(-c3n[nH]c4cnc(-c5cccnc5)cc34)ccc2Cl)CC1", "note": "[Example 255, 3-(5-chloro-6-(4-methylpiperazin-1-yl)pyridin-2-yl)-5-(pyridin-3-yl)-1H-pyrazolo[3,4-c]pyridine]", "Ki": 0.113},
      {"smiles": "CC1CN(c2cccc(-c3n[nH]c4cnc(-c5cnn(CCF)c5)cc34)n2)CCN1", "note": "(stereo not drawn) [Example 516, 5-(1-(2-fluoroethyl)-1H-pyrazol-4-yl)-3-(6-(3-methylpiperazin-1-yl)pyridin-2-yl)-1H-pyrazolo[3,4-c]pyridine]", "Ki": 0.024}
    ]}
  ]
}
